{"source": "patent US5118691A", "about": "“Substituted tetrahydropyridines as central nervous system agents” (Warner-Lambert Co., priority 1991, dated 1992)", "key": {"[1]": {"system": "locomotor activity in mice", "test": "Inhibition of locomotor activity in mice", "assay_type": "in vivo", "conditions": "Mus musculus, IP", "description": "(§1) The compounds of Formula I are valuable dopaminergic agents. […] Thus, the compounds of Formula I were tested for their ability to inhibit locomotor activity in mice according to the assay described by J. R. McLean, et al, Pharmacology, Biochemistry and Behavior, Volume 8, pages 97-99 (1978); for their ability to inhibit [^3 H]-spiroperidol binding in a receptor assay described by D. Grigoriadis and P. Seeman, Journal of Neurochemistry, Volume 44, pages 1925-1935 (1985); and for their ability to inhibit dopamine synthesis in rats according to the protocol described by J. R. Walters and R. H. Roth, Naunyn-Schmiedeberg's Archives of Pharmacology, Volume 296, pages 5-14 (1976). The above test methods are incorporated herein by reference. The data in the table show the dopaminergic activity of representative compounds of Formula I."}, "[2]": {"molecular_target": "T1, [^3 H]-spiroperidol binding (Rattus norvegicus, UniProt P61169)", "T1 construct": "from tissue; host or cells: brain striatum (own knowledge from the cited method)", "T1 sequence (P61169 whole entry)": "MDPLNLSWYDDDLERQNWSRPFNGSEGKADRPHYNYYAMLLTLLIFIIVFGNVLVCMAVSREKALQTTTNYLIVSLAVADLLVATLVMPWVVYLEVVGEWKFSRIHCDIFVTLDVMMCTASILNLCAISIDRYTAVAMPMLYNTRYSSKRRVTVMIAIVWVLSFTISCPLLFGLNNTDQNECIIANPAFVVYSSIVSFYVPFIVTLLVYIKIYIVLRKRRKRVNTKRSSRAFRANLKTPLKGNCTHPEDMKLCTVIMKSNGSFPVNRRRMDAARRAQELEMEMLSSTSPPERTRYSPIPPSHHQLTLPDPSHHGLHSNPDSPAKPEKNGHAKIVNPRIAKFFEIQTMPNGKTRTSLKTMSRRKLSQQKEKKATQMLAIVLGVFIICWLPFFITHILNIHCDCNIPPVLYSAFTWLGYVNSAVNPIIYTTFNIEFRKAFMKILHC", "test": "Inhibition of [^3 H]-spiroperidol binding in a receptor assay", "description": "as §1"}, "[3]": {"system": "Brain Dopamine Synthesis", "test": "Inhibition of dopamine synthesis in rats (reversal of brain dopamine synthesis)", "assay_type": "in vivo", "conditions": "Rattus norvegicus, IP", "description": "as §1"}, "[4]": {"conditions": "read-out: Inhibition of [^3 H]Spiroperidol Binding IC50"}}, "note": "Like-named read-outs stand apart in the source and are kept apart here."}
{"smiles": "C1=C(c2ccccc2)CCN(CCCCc2ccncc2)C1", "note": "[Example 1, 4-[4-(3,6-Dihydro-4-phenyl-1(2H)-pyridinyl)butyl]-pyridine]", "values": [{"measurement": "ED50", "setting": "[1]", "value": 0.6, "unit": "mg/kg"}, {"measurement": "IC50", "setting": "[2]", "value": 0.096, "unit": "µM"}, {"measurement": "inhibition in vivo at 10 mg/kg", "setting": "[3]", "value": 87, "unit": "%"}]}
{"smiles": "C1=C(c2ccccn2)CCN(CCCCc2ccncc2)C1", "note": "[Example 2, 2-[1,2,3,6-Tetrahydro-1-[4-(4-pyridinyl)butyl]-4-pyridinyl]pyridine]", "values": [{"measurement": "ED50", "setting": "[1]", "value": 0.7, "unit": "mg/kg"}, {"measurement": "IC50", "setting": "[2]; [4]", "value": 0.448, "unit": "µM"}, {"measurement": "inhibition in vivo at 10 mg/kg", "setting": "[3]", "value": 88, "unit": "%"}]}
{"smiles": "C1=C(c2c[nH]c3ccccc23)CCN(CCCCc2ccncc2)C1", "note": "[Example 3]", "values": [{"measurement": "ED50", "setting": "[1]", "value": 5, "unit": "mg/kg"}, {"measurement": "IC50", "setting": "[2]; [4]", "value": 0.398, "unit": "µM"}]}
{"smiles": "C1=C(c2cccs2)CCN(CCCCc2ccncc2)C1", "note": "[Example 4, 4-[4-[3,6-Dihydro-4-(2-thienyl)-1(2H)-pyridinyl]-butyl]pyridine]", "values": [{"measurement": "ED50", "setting": "[1]", "value": 1.2, "unit": "mg/kg"}, {"measurement": "IC50", "setting": "[2]", "value": 0.69, "unit": "µM"}]}
{"smiles": "C1=C(c2ccccc2)CCN(CCCc2ccncc2)C1", "note": "[Example 5, 4-[3-(3,6-Dihydro-4-phenyl-1(2H)-pyridinyl)propyl]-pyridine]", "values": [{"measurement": "ED50", "setting": "[1]", "value": 0.63, "unit": "mg/kg"}, {"measurement": "inhibition in vivo at 10 mg/kg", "setting": "[3]", "value": 61, "unit": "%"}]}
{"smiles": "C1=C(c2ccccc2)CCN(CCCCCc2ccncc2)C1", "note": "[Example 7, 4-[5-(3,6-Dihydro-4-phenyl-1(2H)-pyridinyl)pentyl]-pyridine]", "values": [{"measurement": "ED50", "setting": "[1]", "value": 0.9, "unit": "mg/kg"}]}
{"smiles": "C1=C(c2cccs2)CCN(CCCCc2cccnc2)C1", "note": "[Example 8, 3-[4-[3,6-Dihydro-4-(2-thienyl)-1(2H)-pyridinyl]-butyl]pyridine]", "values": [{"measurement": "ED50", "setting": "[1]", "value": 0.66, "unit": "mg/kg"}, {"measurement": "IC50", "setting": "[2]; [4]", "value": 1.29, "unit": "µM"}, {"measurement": "inhibition in vivo at 10 mg/kg", "setting": "[3]", "value": 71, "unit": "%"}]}
{"smiles": "O=C(CCCN1CC=C(c2ccccc2)CC1)c1cccnc1", "note": "[Example 9, 4-(3,6-Dihydro-4-phenyl-1(2H)-pyridinyl)-1-(3-pyridinyl)-1-butanone]", "values": [{"measurement": "ED50", "setting": "[1]", "value": 1.1, "unit": "mg/kg"}, {"measurement": "inhibition in vivo at 10 mg/kg", "setting": "[3]", "value": 50, "unit": "%"}]}
{"smiles": "O=C(CCCN1CC=C(c2ccccc2)CC1)c1ccncc1", "note": "[Example 10, 4-(3,6-Dihydro-4-phenyl-1(2H)-pyridinyl)-1-(4-pyridinyl)-1-butanone]", "values": [{"measurement": "ED50", "setting": "[1]", "value": 1, "unit": "mg/kg"}, {"measurement": "IC50", "setting": "[2]; [4]", "value": 0.408, "unit": "µM"}, {"measurement": "inhibition in vivo at 10 mg/kg", "setting": "[3]", "value": 57, "unit": "%"}]}
{"smiles": "C1=C(c2ccccc2)CCN(CCCCc2cccnc2)C1", "note": "[Example 12, 3-[4-(3,6-Dihydro-4-phenyl-1(2H)-pyridinyl)butyl]-pyridine]", "values": [{"measurement": "ED50", "setting": "[1]", "value": 0.28, "unit": "mg/kg"}, {"measurement": "IC50", "setting": "[2]; [4]", "value": 0.17, "unit": "µM"}, {"measurement": "inhibition in vivo at 10 mg/kg", "setting": "[3]", "value": 80, "unit": "%"}]}
{"smiles": "C1=C(c2ccccc2)CCN(CCCCc2cnc3ccccc3c2)C1", "note": "[Example 13, 3-[4-(3,6-Dihydro-4-phenyl-1(2H)-pyridinyl)butyl]-quinoline]", "values": [{"measurement": "ED50", "setting": "[1]", "value": 0.37, "unit": "mg/kg"}, {"measurement": "IC50", "setting": "[2]", "value": 0.046, "unit": "µM"}, {"measurement": "inhibition in vivo at 10 mg/kg", "setting": "[3]", "value": 100, "unit": "%"}]}
{"smiles": "C1=C(c2cccs2)CCN(CCCCc2cnc3ccccc3c2)C1", "note": "[Example 14]", "values": [{"measurement": "ED50", "setting": "[1]", "value": 1.5, "unit": "mg/kg"}]}
{"smiles": "C1=C(c2ccccn2)CCN(CCCCc2cnc3ccccc3c2)C1", "note": "[Example 15, 3-[4-[3,6-Dihydro-4-(2-pyridinyl)-1(2H)-pyridinyl]-butyl]quinoline]", "values": [{"measurement": "ED50", "setting": "[1]", "value": 0.14, "unit": "mg/kg"}]}
